# Results as given in patent publication US10869931B2, “Polyethylene glycol-modified angiogenesis inhibitor HM-1 and application thereof” (NANJING ANJI BIOLOGICAL TECHNOLOGY CO.,LTD, priority 2016, dated 2020).
# Several values for one entry are separate records, joined by “and”; a condition that tells them apart may be missing. Identical values can stand only once. Marks after values point to notes of the source that are not given here. Where no end group is shown, it is not given here.
# Assays:
# Liver cancer tumor cells = assay: MTT proliferation inhibition, liver cancer cells; format: cell-based, human; set-up: concentration or dose not given beside the values; conditions: 48 h
# Procedure, shortened: (§1)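 Tumour cells plated at 2×10^4 cells/mL, attached overnight, then exposed to dilutions of mPEG-HM-1 for 48 h at 37 °C, 5% CO2. MTT added 4 h, formazan dissolved in DMSO, absorbance 570/630 nm; growth inhibition = 1 − treated/untreated, three independent repeats, mean±SD.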
# [1] = system: Gastric cancer tumor cells; assay: MTT proliferation inhibition, gastric cancer cells; format: cell-based, human; set-up: concentration or dose not given beside the values; conditions: 48 h
# Procedure, shortened: as §1
# [2] = system: Uterine cancer tumor cells; assay: MTT proliferation inhibition, uterine cancer cells; format: cell-based, human; set-up: concentration or dose not given beside the values; conditions: 48 h
# Procedure, shortened: as §1
# [3] = system: human retinal vascular endothelial cells (HRCEC); assay: MTT proliferation of human retinal vascular endothelial cells; format: cell-based; conditions: 48 h; for Inhibition rate: HRCEC proliferation; for A570 nm-A630 nm: HRCEC; for A570 nm-A630 nm / inhibition rate of HRCEC proliferation: MTT
# Procedure, shortened: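 HRCEC seeded at 3.0×10^4 cells/mL, adhered overnight, then exposed to polypeptide dilutions for 48 h at 37° C, 5% CO2; medium-only blank control. MTT added for 4 h, formazan dissolved in DMSO. PI (%)=1−administration group/negative group; three independent repeats, mean±SD, t test.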
# [4] = system: choroidal neovascularization in BN rats; assay: Laser-induced choroidal neovascularization in BN rats (FFA); format: in vivo, rat
# Procedure, shortened: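 Male BN rats (6–8 weeks) received 8 laser photocoagulation spots per eye around the optic disc (647.1 nm, 350 mW, 50 μm, 0.05 s). Confirmed models, 5 per group, were given saline or PEG-modified HM-1 intravitreally once daily for 1 week. FFA was done 3, 7, 14 and 28 days after dosing.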
# [5] = system: retinal neovascular clusters in OIR C57/B16 mice; assay: Retinal blood vessels in OIR mice; format: in vivo, mouse; conditions: for Neovascular clusters area: retina evaluated on day 17; for Inhibition rate: neovascular clusters area vs control, day 17
# Procedure, shortened: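 C57/B16 pups and mothers were held in 75% oxygen from postnatal day 7 to 12, then returned to room air. On day 13 the PEGylated HM-1 conjugates or saline were given by intravitreal injection; on day 17 retinal vessels were assessed after intracardiac Texas Red-tomato lectin, circulated 5 min.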
# [6] = in vivo
# [7] = Day 3 after administration, 25 μg intravitreally once daily for 1 week (Table 53)
# [8] = Day 3 after administration, 25 μg intravitreally once daily for 1 week (Table 53), total spots 290-296 by table
# [9] = Day 7, 25 μg intravitreally once daily for 1 week (Table 53)
# [10] = Day 7, 25 μg intravitreally once daily for 1 week (Table 53), total spots 182-188 by table
# [11] = Day 14, 25 μg intravitreally once daily for 1 week (Table 53)
# [12] = Day 14, 25 μg intravitreally once daily for 1 week (Table 53), total spots 132-138 by table
# [13] = Day 28, 25 μg intravitreally once daily for 1 week (Table 53)
# [14] = Day 28, 25 μg intravitreally once daily for 1 week (Table 53), total spots 67-71 by table
# [15] = 25 μg intravitreal injection on day 13
# [16] = Day 3 after administration, 100 μg intravitreally once daily for 1 week (Table 53)
# [17] = Day 3 after administration, 100 μg intravitreally once daily for 1 week (Table 53), total spots 290-296 by table
# [18] = Day 7, 100 μg intravitreally once daily for 1 week (Table 53)
# [19] = Day 7, 100 μg intravitreally once daily for 1 week (Table 53), total spots 182-188 by table
# [20] = Day 14, 100 μg intravitreally once daily for 1 week (Table 53)
# [21] = Day 14, 100 μg intravitreally once daily for 1 week (Table 53), total spots 132-138 by table
# [22] = Day 28, 100 μg intravitreally once daily for 1 week (Table 53)
# [23] = Day 28, 100 μg intravitreally once daily for 1 week (Table 53), total spots 67-71 by table
# [24] = 100 μg intravitreal injection on day 13
substance,measurement,setting,value
mPEG-ALD5k-Arg-Gly-Ala-Asp-Arg-Ala-Gly-Gly-Gly-Gly-Arg-Gly-Asp ({mPEG‑ALD 5 kDa}-RGADRAGGGGRGD) [mPEG-ALD5k-HM-1],rate of growth inhibition,Liver cancer tumor cells,52.98 ± 11.55%
same,rate of growth inhibition,[1],58.77 ± 15.49%
same,rate of growth inhibition,[2],65.99 ± 17.72%
same,Inhibition rate,[3]; 20 μg/mL,42.02%*
same,A570 nm-A630 nm,[3]; 20 μg/mL,0.7599 ± 0.08933
same,Inhibition rate,[3]; 40 μg/mL,51.93%**
same,A570 nm-A630 nm,[3]; 40 μg/mL,0.6301 ± 0.08011
same,Inhibition rate,[3]; 60 μg/mL,61.53%*
same,A570 nm-A630 nm,[3]; 60 μg/mL,05042 ± 0.08135
same,CNV Incidence rate,[4]; [7],55.17%
same,leakage Spots #,[4]; [8],160
same,CNV Incidence rate,[4]; [9],52.75%
same,leakage Spots #,[4]; [10],96
same,CNV Incidence rate,[4]; [11],46.97%
same,leakage Spots #,[4]; [12],62
same,CNV Incidence rate,[4]; [13],46.48%
same,leakage Spots #,[4]; [14],33
same,Neovascular clusters area,[5]; [15],0.108 ± 0.006 mm^2
same,Inhibition rate,[5]; 25 μg intravitreal,50.98%**
same,AUC0-∞,[6],4986.29 ± 10.16 mg/L/h
same,CL,[6],0.0506 ± 0.0094 L/h/kg
same,MRT0-∞,[6],8.15 ± 4.21 h
same,T1/2β (half-life),[6],9.13 ± 0.11 h
mPEG2-NHS20k-Arg-Gly-Ala-Asp-Arg-Ala-Gly-Gly-Gly-Gly-Arg-Gly-Asp ({mPEG2‑NHS 20 kDa}-RGADRAGGGGRGD) [mPEG2-NHS20k-HM-1],rate of growth inhibition,Liver cancer tumor cells,55.03 ± 14.19%
same,rate of growth inhibition,[1],60.90 ± 20.14%
same,rate of growth inhibition,[2],65.99 ± 22.07%
same,Inhibition rate,[3]; 60 μg/mL,44.01%*
same,A570 nm-A630 nm,[3]; 60 μg/mL,0.7401 ± 0.07482
same,Inhibition rate,[3]; 80 μg/mL,54.18%**
same,A570 nm-A630 nm,[3]; 80 μg/mL,0.6056 ± 0.07003
same,Inhibition rate,[3]; 100 μg/mL,64.62%*
same,A570 nm-A630 nm,[3]; 100 μg/mL,0.4677 ± 0.07601
same,CNV Incidence rate,[4]; [16],52.72%
same,leakage Spots #,[4]; [17],155
same,CNV Incidence rate,[4]; [18],52.20%
same,leakage Spots #,[4]; [19],95
same,CNV Incidence rate,[4]; [20],45.99%
same,leakage Spots #,[4]; [21],63
same,CNV Incidence rate,[4]; [22],42.65%
same,leakage Spots #,[4]; [23],29
same,Neovascular clusters area,[5]; [24],0.112 ± 0.011 mm^2
same,Inhibition rate,[5]; 100 μg intravitreal,49.27%**
same,AUC0-∞,[6],4682.53 ± 15.01 mg/L/h
same,CL,[6],0.0131 ± 0.0102 L/h/kg
same,MRT0-∞,[6],18.16 ± 10.22 h
same,T1/2β (half-life),[6],22.38 ± 0.34 h
mPEG2-NHS5k-Arg-Gly-Ala-Asp-Arg-Ala-Gly-Gly-Gly-Gly-Arg-Gly-Asp ({mPEG2‑NHS 5 kDa}-RGADRAGGGGRGD) [mPEG2-NHS5k-HM-1],rate of growth inhibition,Liver cancer tumor cells,50.92 ± 11.66%
same,rate of growth inhibition,[1],50.31 ± 13.29%
same,rate of growth inhibition,[2],55.20 ± 15.63%
same,Inhibition rate,[3]; 20 μg/mL,40.94%*
same,A570 nm-A630 nm,[3]; 20 μg/mL,0.7807 ± 0.09103
same,Inhibition rate,[3]; 40 μg/mL,50.65%**
same,A570 nm-A630 nm,[3]; 40 μg/mL,0.6523 ± 0.08688
same,Inhibition rate,[3]; 60 μg/mL,61.08%*
same,A570 nm-A630 nm,[3]; 60 μg/mL,0.5144 ± 0.08531
same,CNV Incidence rate,[4]; [7],56.12%
same,leakage Spots #,[4]; [8],165
same,CNV Incidence rate,[4]; [9],55.49%
same,leakage Spots #,[4]; [10],101
same,CNV Incidence rate,[4]; [11],45.99%
same,leakage Spots #,[4]; [12],63
same,CNV Incidence rate,[4]; [13],48.53%
same,leakage Spots #,[4]; [14],33
same,Neovascular clusters area,[5]; [15],0.119 ± 0.007 mm^2
same,Inhibition rate,[5]; 25 μg intravitreal,46.35%*
same,AUC0-∞,[6],4789.25 ± 12.08 mg/L/h
same,CL,[6],0.0527 ± 0.0112 L/h/kg
same,MRT0-∞,[6],8.02 ± 5.04 h
same,T1/2β (half-life),[6],8.85 ± 0.10 h
mPEG-ALD20k-Arg-Gly-Ala-Asp-Arg-Ala-Gly-Gly-Gly-Gly-Arg-Gly-Asp ({mPEG‑ALD 20 kDa}-RGADRAGGGGRGD) [mPEG-ALD20k-HM-1],rate of growth inhibition,Liver cancer tumor cells,65.31 ± 18.18%
same,rate of growth inhibition,[1],75.23 ± 20.62%
same,rate of growth inhibition,[2],89.37 ± 23.47%
same,Inhibition rate,[3]; 60 μg/mL,46.21%*
same,A570 nm-A630 nm,[3]; 60 μg/mL,0.7050 ± 0.07965
same,Inhibition rate,[3]; 80 μg/mL,55.90%**
same,A570 nm-A630 nm,[3]; 80 μg/mL,0.5780 ± 0.06987
same,inhibition rate of HRCEC proliferation,[3]; 100 μg/mL,68.15% and 69.12%
same,Inhibition rate,[3]; 100 μg/mL,68.15%*
same,A570 nm-A630 nm,[3]; 100 μg/mL,0.4175 ± 0.07301
same,CNV Incidence rate,[4]; [16],51.72%
same,leakage Spots #,[4]; [17],150
same,CNV Incidence rate,[4]; [18],48.90%
same,leakage Spots #,[4]; [19],89
same,CNV Incidence rate,[4]; [20],45.45%
same,leakage Spots #,[4]; [21],60
same,CNV Incidence rate,[4]; [22],40.85%
same,leakage Spots #,[4]; [23],29
same,Neovascular clusters area,[5]; [24],0.095 ± 0.009 mm^2
same,Inhibition rate,[5]; 100 μg intravitreal,57.03%**
same,AUC0-∞,[6],5899.46 ± 6.68 mg/L/h
same,CL,[6],0.0129 ± 0.0106 L/h/kg
same,MRT0-∞,[6],18.65 ± 2.57 h
same,T1/2β (half-life),[6],22.65 ± 0.21 h
mPEG-ALD10k-Arg-Gly-Ala-Asp-Arg-Ala-Gly-Gly-Gly-Gly-Arg-Gly-Asp ({mPEG‑ALD 10 kDa}-RGADRAGGGGRGD) [mPEG-ALD10k-HM-1],rate of growth inhibition,Liver cancer tumor cells,70.55 ± 20.09%
same,rate of growth inhibition,[1],80.01 ± 18.26%
same,rate of growth inhibition,[2],90.79 ± 22.19%
same,Inhibition rate,[3]; 40 μg/mL,48.34%*
same,A570 nm-A630 nm,[3]; 40 μg/mL,0.6771 ± 0.07904
same,Inhibition rate,[3]; 60 μg/mL,58.62%**
same,A570 nm-A630 nm,[3]; 60 μg/mL,0.5424 ± 0.07508
same,inhibition rate of HRCEC proliferation,[3]; 80 μg/mL,73.89%
same,Inhibition rate,[3]; 80 μg/mL,73.89%*
same,A570 nm-A630 nm,[3]; 80 μg/mL,0.3422 ± 0.07412
same,incidence of CNV,"[4]; BN rats, 28 days after administration, intravitreal once daily for 1 week",39.44% and 39.13%
same,CNV Incidence rate,"[4]; Day 3 after administration, 50 μg intravitreally once daily for 1 week (Table 53)",48.62%
same,leakage Spots #,"[4]; Day 3 after administration, 50 μg intravitreally once daily for 1 week (Table 53), total spots 290-296 by table",141
same,CNV Incidence rate,"[4]; Day 7, 50 μg intravitreally once daily for 1 week (Table 53)",46.15%
same,leakage Spots #,"[4]; Day 7, 50 μg intravitreally once daily for 1 week (Table 53), total spots 182-188 by table",84
same,CNV Incidence rate,"[4]; Day 14, 50 μg intravitreally once daily for 1 week (Table 53)",41.67%
same,leakage Spots #,"[4]; Day 14, 50 μg intravitreally once daily for 1 week (Table 53), total spots 132-138 by table",55
same,CNV Incidence rate,"[4]; Day 28, 50 μg intravitreally once daily for 1 week (Table 53)",39.44%
same,leakage Spots #,"[4]; Day 28, 50 μg intravitreally once daily for 1 week (Table 53), total spots 67-71 by table",28
same,Neovascular clusters area,[5]; 50 μg intravitreal injection on day 13,0.085 ± 0.007 mm^2
same,Inhibition rate,[5]; 50 μg intravitreal,61.75%**
same,inhibition rate of retinal neovascular clusters,"[5]; OIR mice, 50 μg intravitreal injection, evaluated day 17",61.75%
same,AUC0-∞,[6],5067.98 ± 9.79 mg/L/h
same,CL,[6],0.0255 ± 0.0073 L/h/kg
same,MRT0-∞,[6],11.05 ± 7.68 h
same,T1/2β (half-life),[6],16.46 ± 0.10 h
